Key:
Assay type in all cases: in vivo
[1] = tested on: Myzus persicae (Green Peach Aphid); experiment: Myzus persicae systemic activity; details: 144 h, test rate 24 ppm, roots of pea seedlings in test solution, 6 days
Experimental: Roots of pea seedlings infested with an aphid population of mixed ages were placed directly into aqueous test solutions prepared from 10,000 DMSO stock solutions. The samples were assessed for mortality 6 days after placing seedlings into test solutions.

[2] = tested on: Aphis craccivora (Black Bean Aphid); experiment: Aphis craccivora mixed population, systemic/feeding; details: 120 h, test rate 12.5 ppm, pea seedlings in test solutions, 5 days
Experimental: Pea seedlings infested with mixed aged aphid population, were put into glass vials with test solutions. 5 days later, samples were assessed for mortality.

[3] = tested on: Carpocapsa (Cydia) Pomonella (Codling Moth); experiment: Carpocapsa (Cydia) pomonella larvicide, feeding/contact; details: 336 h, test rate 50 ppm, L1 larvae on diet cubes, 14 days after infestation, read-out: control in at least one of the two categories (mortality or growth inhibition)
Experimental: Diet cubes coated with paraffin were sprayed with diluted test solutions in an application chamber. After drying off the treated cubes (10 replicates) were infested with 1 L1 larvae. Samples were incubated at 26-27° C. and checked 14 days after infestation for mortality and growth inhibition.

[4] = tested on: Chrysodeixis includens (Soybean Looper); experiment: Chrysodeixis includens larvicide, feeding/contact; details: 120 h, test rate 50 ppm, L2 larvae on soybean leaves, 5 days after infestation, read-out: control in at least one of the two categories (mortality or growth inhibition)
Experimental: Soybean plants were treated in a spray chamber, cut off and placed into petri dishes containing wet filter paper. 1 d after application leaves were infested with 5 L2 larvae and covered with a fabric filter and plastic lids. 5 days after infestation the samples were assessed for mortality and growth inhibition.

[5] = tested on: Chilo suppressalis (Striped Stem Borer); experiment: Chilo suppressalis larvicide, feeding/contact; details: 120 h, test rate 200 ppm, L2 larvae on sprayed rice plants, 5 days after application
Experimental: Rice plants were treated in a spray chamber, cut off and placed into petri dishes containing wet filter paper. 10 L2 larvae were infested and covered up with a cotton filter and a lid. 5 days after application samples were assessed for mortality.

[6] = tested on: Aedes aegypti (Yellow Fever Mosquito); experiment: whole plant or invertebrate; details: test rate 200 ppm, adult females, mortality assessed at 24 and 48 hours
Experimental: (§1) Test solutions, at an application rate of 200 ppm in ethanol, were applied to 12 well tissue culture plates. Once the deposits were dry, five, two to five day old adult female Aedes aegypti were added to each well, and sustained with a 10% sucrose solution in a cotton wool plug. Assessment of knockdown was made one hour after introduction, and mortality was assessed at 24 and 48 hours after introduction.

[7] = tested on: Anopheles stephensi (Indian Malaria Mosquito); experiment: Anopheles stephensi adult contact on treated plates; details: test rate 200 ppm, adult females, mortality assessed at 24 and 48 hours
Experimental: as §1, with “Anopheles stephensi” for “Aedes aegypti”

[8] = tested on: German cockroaches, Blattella germanica; experiment: Cockroach N3 contact bioassay; details: 72 h, test rate 100 ppm, third nymphal stage, sprayed, 3 days
Experimental: (§2) Ten third nymphal stage German cockroaches, Blattella germanica, were placed in a 250 ml plastic drinking cup along with ca. 1 g of compressed rabbit food, and retained with a section of netting. Experimental compounds are diluted to 1000 ppm w/v in acetone, then subsequently to 100 ppm w/v in a 0.1% Tween solution in de-ionised water. 1 ml of the experimental solution is sprayed with a Potter tower directly through the retaining net onto the cockroach nymphs. A damp cotton wool ball is placed on top of the retaining net, and the cups held at 24° C. and ambient humidity. Assessment of mortality is made three days after application.

[9] = tested on: house flies, Musca domestica; experiment: House fly adult contact bioassay; details: 72 h, test rate 100 ppm, adult females, sprayed, 3 days
Experimental: as §2, with “adult female house flies, Musca domestica, are” for “third nymphal stage German cockroaches, Blattella germanica, were”, “a sugar cube,” for “ca. 1 g of compressed rabbit food,”, “adult house flies.” for “cockroach nymphs.”

[10] = tested on: German cockroaches, Blattella germanica; experiment: Cockroach bait bioassay; details: 72 h, test rate 1000 ppm in peanut butter bait, adults, 3 days
Experimental: The experimental compound is diluted in acetone to 1000 ppm w/v. 1 ml of this solution is added to 1 g of smooth peanut butter in a 15 ml glass vial and thoroughly mixed. This mixture is left in a fume cupboard for 24 hours until all the acetone has evaporated. It is then mixed again to ensure a homogeneous distribution of the experimental compound with a concentration of 1000 ppm w/w.
Ten adult male and ten adult female German cockroaches, Blattella germanica, are placed in a plastic arena approximately 20 cm in diameter. Also placed in each arena are a simple harbourage constructed from concertinaed card, and a water source. After the cockroaches have acclimatised for 24 hours the glass vial containing 1 g of the treated bait is introduced.
Assessment of cockroach mortality is made 3 days after bait introduction.

Row | SMILES | mortality at 24 ppm [1] | mortality at 12.5 ppm [2] | percent control (mortality or growth inhibition) at 50 ppm [3] | percent control (mortality or growth inhibition) at 50 ppm [4] | mortality at 200 ppm [5] | mortality at 200 ppm [6] | mortality at 200 ppm [7] | mortality at 100 ppm [8] | mortality at 100 ppm [9] | mortality at 1000 ppm [10]
1 | CC(c1ncnn1-c1ncccn1)N(C)C(=O)c1cc(C(F)(F)F)cc(C(F)(F)F)c1 (centres unmarked) [Compound 1] | ≥ 80% | ≥ 80% | ≥ 80% | ≥ 80% | ≥ 80% | – | – | – | – | –
2 | CC(c1ncnn1-c1ncccn1)N(CC1CC1)C(=O)c1cc(C(F)(F)F)cc(C(F)(F)F)c1 (centres unmarked) [Compound 3] | ≥ 80% | ≥ 80% | ≥ 80% | ≥ 80% | ≥ 80% | ≥ 60% | ≥ 60% | ≥ 80% | ≥ 80% | ≥ 80%
3 | CC(NC(=O)c1cc(C(F)(F)F)cc(C(F)(F)F)c1)c1ncnn1-c1ncccn1 (centres unmarked) [Compound 4] | – | ≥ 80% | ≥ 80% | – | – | – | – | ≥ 80% | ≥ 80% | ≥ 80%
